Numbered stars: 1 amine (or outer) side, 2 acyl side, 3 side chain; on linkers, the order of the positions; unused ones are H or OH. Side chains are listed from the residue outwards. Peptide text beside a SMILES is read from it. * marks the point of attachment. C18 diacid = O=C(O)CCCCCCCCCCCCCCCCC(=O)*; γGlu = O=C(O)[C@H](CCC(=O)[*:2])N[*:1]; AEEA = NCCOCCOCC(=O)O
Each compound was assayed against glucagon receptor (Homo sapiens, UniProt P47871) (assay: cell-based).
Sequence of glucagon receptor (P47871 26-477): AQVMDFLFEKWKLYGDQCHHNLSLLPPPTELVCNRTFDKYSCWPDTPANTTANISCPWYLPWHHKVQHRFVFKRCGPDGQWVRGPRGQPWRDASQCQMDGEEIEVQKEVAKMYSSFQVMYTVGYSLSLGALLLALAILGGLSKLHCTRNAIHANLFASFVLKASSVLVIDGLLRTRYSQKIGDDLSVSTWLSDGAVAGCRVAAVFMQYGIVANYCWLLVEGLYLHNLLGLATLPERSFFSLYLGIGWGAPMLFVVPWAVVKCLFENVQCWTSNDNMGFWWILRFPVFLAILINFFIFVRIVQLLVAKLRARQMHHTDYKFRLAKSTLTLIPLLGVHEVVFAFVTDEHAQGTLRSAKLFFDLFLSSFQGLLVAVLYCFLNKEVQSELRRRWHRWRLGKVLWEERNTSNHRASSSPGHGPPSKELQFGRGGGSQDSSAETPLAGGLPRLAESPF
Protocol: The cells (14000 per well) were incubated (37° C., 5% CO2) overnight in 384-well plates. Next day the cells were loaded with a calcium responsive dye that only distributed into the cytoplasm. Probenecid, an inhibitor of the organic anion transporter, was added to prevent the dye from leaving the cell. A PDE inhibitor was added to prevent formatted cAMP from being degraded. […] End point data were collected after 6 minutes. An increase in intracellular cAMP was proportional to an increased in calcium concentrations in the cytoplasm. […] EC50-values were calculated in Prism5.
In the case of `CC(C)C[C@H](NC(=O)[C@H](Cc1ccc(O)cc1)NC(=O)[C@H](CCCCN)NC(=O)[C@H](CO)NC(=O)[C@H](Cc1ccc(O)cc1)NC(=O)[C@H](CC(=O)O)NC(=O)[C@H](CO)NC(=O)[C@@H](NC(=O)[C@H](Cc1ccccc1)NC(=O)[C@@H](NC(=O)CNC(=O)[C@H](CCC(N)=O)NC(=O)[C@H](CO)NC(=O)[C@@H](N)Cc1c[nH]cn1)[C@@H](C)O)[C@@H](C)O)C(=O)N[C@@H](CC(=O)O)C(=O)N[C@@H](CO)C(=O)N[C@@H](CCCNC(=N)N)C(=O)N[C@@H](CCCNC(=N)N)C(=O)N[C@@H](C)C(=O)N[C@@H](CCC(N)=O)C(=O)N[C@@H](CC(=O)O)C(=O)N[C@@H](Cc1ccccc1)C(=O)N[C@H](C(=O)N[C@@H](CCC(N)=O)C(=O)N[C@@H](Cc1c[nH]c2ccccc12)C(=O)N[C@@H](CC(C)C)C(=O)N[C@@H](CC(C)C)C(=O)N[C@@H](CCCCNC(=O)COCCOCCNC(=O)COCCOCCNC(=O)CC[C@H](NC(=O)CC[C@H](NC(=O)CC[C@H](NC(=O)CCCCCCCCCCCCCCCCC(=O)O)C(=O)O)C(=O)O)C(=O)O)C(=O)N[C@H](C(=O)O)[C@@H](C)O)C(C)C` [Example 67, N^ε28-[2-[2-[2-[[2-[2-[2-[[(4S)-4-carboxy-4-[[(4S)-4-carboxy-4-[[(4S)-4-carboxy-4-(17-carboxyheptadecanoylamino)butanoyl]amino]butanoyl]amino]butanoyl]amino]ethoxy]ethoxy]acetyl]amino]ethoxy]ethoxy]acetyl]-[Leu^27,Lys^28]-Glucagon], the EC50 is reported as 0.116 nM. Work on `CC(C)C[C@H](NC(=O)[C@H](Cc1ccc(O)cc1)NC(=O)[C@H](CCCCN)NC(=O)[C@H](CO)NC(=O)[C@H](Cc1ccc(O)cc1)NC(=O)[C@H](CC(=O)O)NC(=O)[C@H](CO)NC(=O)[C@@H](NC(=O)[C@H](Cc1ccccc1)NC(=O)[C@@H](NC(=O)CNC(=O)[C@H](CCC(N)=O)NC(=O)[C@H](CO)NC(=O)[C@@H](N)Cc1c[nH]cn1)[C@@H](C)O)[C@@H](C)O)C(=O)N[C@@H](CC(=O)O)C(=O)N[C@@H](CO)C(=O)N[C@@H](CCCNC(=N)N)C(=O)N[C@@H](CCCNC(=N)N)C(=O)N[C@@H](C)C(=O)N[C@@H](CCC(N)=O)C(=O)N[C@@H](CC(=O)O)C(=O)N[C@@H](Cc1ccccc1)C(=O)N[C@H](C(=O)N[C@@H](CCCCNC(=O)CC[C@H](NC(=O)COCCOCCNC(=O)COCCOCCNC(=O)CC[C@H](NC(=O)CC[C@H](NC(=O)CCCCCCCCCCCCCCCCC(=O)O)C(=O)O)C(=O)O)C(=O)O)C(=O)N[C@@H](Cc1c[nH]c2ccccc12)C(=O)N[C@@H](CC(C)C)C(=O)N[C@@H](CC(C)C)C(=O)N[C@@H](CO)C(=O)N[C@H](C(=O)O)[C@@H](C)O)C(C)C` [Example 68, N^ε24-[(4S)-4-carboxy-4-[[2-[2-[2-[[2-[2-[2-[[(4S)-4-carboxy-4-[[(4S)-4-carboxy-4-(17-carboxyheptadecanoylamino)butanoyl]amino]butanoyl]amino]ethoxy]ethoxy]acetyl]amino]ethoxy]ethoxy]acetyl]amino]butanoyl]-[Lys^24,Leu^27,Ser^28]-Glucagon] yielded an EC50 of 0.106 nM. With `CC(C)C[C@H](NC(=O)[C@H](Cc1ccc(O)cc1)NC(=O)[C@H](CCCCN)NC(=O)[C@H](CO)NC(=O)[C@H](Cc1ccc(O)cc1)NC(=O)[C@H](CC(=O)O)NC(=O)[C@H](CO)NC(=O)[C@@H](NC(=O)[C@H](Cc1ccccc1)NC(=O)[C@@H](NC(=O)CNC(=O)[C@H](CCC(N)=O)NC(=O)[C@H](CO)NC(=O)[C@@H](N)Cc1c[nH]cn1)[C@@H](C)O)[C@@H](C)O)C(=O)N[C@@H](CC(=O)O)C(=O)N[C@@H](CO)C(=O)N[C@@H](CCCNC(=N)N)C(=O)N[C@@H](CCCNC(=N)N)C(=O)N[C@@H](C)C(=O)N[C@@H](CCC(N)=O)C(=O)N[C@@H](CC(=O)O)C(=O)N[C@@H](Cc1ccccc1)C(=O)N[C@H](C(=O)N[C@@H](CCCCNC(=O)COCCOCCNC(=O)COCCOCCNC(=O)CC[C@H](NC(=O)CC[C@H](NC(=O)CC[C@H](NC(=O)CCCCCCCCCCCCCCCCC(=O)O)C(=O)O)C(=O)O)C(=O)O)C(=O)N[C@@H](Cc1c[nH]c2ccccc12)C(=O)N[C@@H](CC(C)C)C(=O)N[C@@H](CC(C)C)C(=O)N[C@@H](CO)C(=O)N[C@H](C(=O)O)[C@@H](C)O)C(C)C` [Example 69, N^ε24-[2-[2-[2-[[2-[2-[2-[[(4S)-4-carboxy-4-[[(4S)-4-carboxy-4-[[(4S)-4-carboxy-4-(17-carboxyheptadecanoylamino)butanoyl]amino]butanoyl]amino]butanoyl]amino]ethoxy]ethoxy]acetyl]amino]ethoxy]ethoxy]acetyl]-[Lys^24,Leu^27,Ser^28]-Glucagon] the EC50 was 0.115 nM. In the case of `CC(C)C[C@H](NC(=O)[C@H](Cc1ccc(O)cc1)NC(=O)[C@H](CCCCN)NC(=O)[C@H](CO)NC(=O)[C@H](Cc1ccc(O)cc1)NC(=O)[C@H](CC(=O)O)NC(=O)[C@H](CO)NC(=O)[C@@H](NC(=O)[C@H](Cc1ccccc1)NC(=O)[C@@H](NC(=O)CNC(=O)[C@H](CCC(N)=O)NC(=O)[C@H](CO)NC(=O)[C@@H](N)Cc1c[nH]cn1)[C@@H](C)O)[C@@H](C)O)C(=O)N[C@@H](CC(=O)O)C(=O)N[C@@H](CCCCNC(=O)CC[C@H](NC(=O)CC[C@H](NC(=O)COCCOCCNC(=O)COCCOCCNC(=O)CC[C@H](NC(=O)CCCCCCCCCCCCCCCCC(=O)O)C(=O)O)C(=O)O)C(=O)O)C(=O)N[C@@H](CCCNC(=N)N)C(=O)N[C@@H](CCCNC(=N)N)C(=O)N[C@@H](C)C(=O)N[C@@H](CCC(N)=O)C(=O)N[C@@H](CC(=O)O)C(=O)N[C@@H](Cc1ccccc1)C(=O)N[C@H](C(=O)N[C@@H](CCC(N)=O)C(=O)N[C@@H](Cc1c[nH]c2ccccc12)C(=O)N[C@@H](CC(C)C)C(=O)N[C@@H](CC(C)C)C(=O)N[C@@H](CC(N)=O)C(=O)N[C@H](C(=O)O)[C@@H](C)O)C(C)C` [Example 70, N^ε16-[(4S)-4-carboxy-4-[[(4S)-4-carboxy-4-[[2-[2-[2-[[2-[2-[2-[[(4S)-4-carboxy-4-(17-carboxyheptadecanoylamino)butanoyl]amino]ethoxy]ethoxy]acetyl]amino]ethoxy]ethoxy]acetyl]amino]butanoyl]amino]butanoyl]-[Lys^16,Leu^27]-Glucagon] (H-HSQGTFTSDYSKYLDK([γGlu-γGlu-AEEA-AEEA-γGlu-C18 diacid])RRAQDFVQWLLNT-OH; N-terminus and C-terminus assumed), the EC50 is reported as 0.105 nM.

Reference: patent US20160271263A1 (Novo Nordisk A/S, priority 2010, published 2016)
